Patent publication US4443448A, “Indane derivatives, pharmaceutical compositions thereof and method of preparation” (priority 1980, dated 1984)
Like-named read-outs stand apart in the source and are kept apart here.

How the values were obtained:
[1] = in vivo; conditions: iv
[2] = Mouse grid shock (analgesia); format: in vivo; conditions: mice, minimal effective dose, in mg/kg
Experimental: The mouse grid consists of a perspex cage with wire grid bottom and a perspex lid, on which is placed a microphone sensitive to the frequency of a mouse squeak. A stimulator with motordriven potentiometer applies a sequence of square wave impulses of continuously increasing milliamperage to the grid. Frequency of impulses 20 cycles/sec., duration 5 msec. Milliamperage is recorded on a digital amperemeter connected to the stimulator. Activation of the microphone by a mouse-squeak cuts off the current and the final milliamperage appears on the meter.
Five mice are used for each dose level. Each mouse serves as its own control.
Prior to the administration of test substance the animals are placed on the grid one at a time, and the pain threshold is determined by increasing the current intensity until the mouse squeaks. The pain threshold may be read on the milliamperemeter. Fifteen minutes and 30 minutes after administration of test substance the mice are tested again and the pain thresholds recorded.
Analgesic effect is present, when the pain threshold is increased over the pre-dosing value (control value). The results are stated as % increase in pain threshold calculated on the basis of the control value.
The registration can also be done as an on-line procedure. In this case the punching instruction and punching cards will be provided automatically and the results will be registered as a minimal effective dose (MED) determined after van der Waerdens X-test.

[3] = in vivo; set-up: species or system rats; conditions: for Ratio catalep./Amphet.: catalepsy ED50 / amphetamine antagonism ED50; for ED50: rat, in vivo, po, rats, p.o., strongest effect within first 6 hours, read-out: Catalep. (catalepsy wire mesh, rat, max, ED50)
Experimental: A vertical wire netting (50 cm×49 cm). The meshes (openings) of the netting are square (1 cm×1 cm). The wire diameter is 2 mm.
The animals are labeled and used in groups of five. The test substance is administered orally (p.o) at 4 dose levels selected from the fixed dose scale.
The animals are placed in the middle of the vertical wire netting 60, 120, 180, 240, 300 and 360 minutes after administration of the test compound. The animals are considered cataleptic when they remain immobile during a period of 15 seconds.
This cataleptic reaction is designated +. If the rats are "atonic" and passively slide down the wire mesh they are considered not cataleptic. If the animals climb up and down the wire mesh they are nor cataleptic.
In both situations the designation--is used.

[4] = test system: methylphenidate; assay: Methylphenidate antagonism in mice; format: in vivo; conditions: for ED50: Mus musculus, ip
Experimental: Methylphenidate antagonism (ED50 mg/kg i.p.)
(§1) Perspex observation cages without bottom and lid, consisting of 5 sections each measuring 12×25×30 cm.
3×2 mice are used for each dose level. Two or 24 hours after injection of test substance, methylphenidate, 60 mg/kg, is injected s.c. After administration of methylphenidate the mice are placed in the observation cages, 2 in each cage, where they remain for exactly 1 hour. The cages were placed on corrugated paper, the corrugations facing upwards. It is examined whether the mice have been biting the corrugated paper or not. […] If one or more of the control pairs have not been biting, the test has to be repeated on a new set of mice.
The result is stated in fractions: 0/3, 1/3, 2/3 and 3/3 where 0, 1, 2 and 3 are the number of pairs which have not been biting on receipt of the dose in question.

[5] = test system: amphetamine; assay: Amphetamine antagonism in rats; format: in vivo; conditions: Rattus norvegicus, po, rats, p.o., amphetamine 10 mg/kg base i.v.; read-out: Amphetamine antag. ED50 p.o.
Experimental: Amphetamine antagonism (ED50 mg/kg i.p.)
as §1
The test substance is given p.o. in a reasonable dose based on the determined LD50. Two or 24 hours later an intravaneous injection of amphetamine sulphate 13.6 mg/kg (10 mg/kg amphetamine base) is given, after which the rats are placed individually in the cages. The cages are placed on white corrugated paper. Five rats are used for each dose level. Observations are made after 55 minutes and 65 minutes-observation time: 1 minute. The animals are observed for stereotypy (movements of the head, compulsive gnawing). […] If the compound has full antagonistic effect another group of rats is used at a lower dose. […] The result is stated as fractions: 0/5, 1/5, 2/5, 3/5, 4/5 and 5/5, where 0, 1, 2, 3, 4 and 5 indicate the number of rats which have not shown stereotypy at the dose in question. The results are calculated as ED50 in mg/kg.

[6] = 2 h, read-out: MePh antag. ED50 2 hr i.p., mice, test substance i.p., 2 hr before methylphenidate 60 mg/kg s.c.
[7] = read-out: MePh antag. ED50 2 hr i.p., mice, test substance i.p., 2 hr before methylphenidate 60 mg/kg s.c.

Structure (SMILES) | LD50 [1] | MED Grid Shock [2] | Ratio catalep./Amphet. [3] | ED50 [3] | ED50 [4, 6] | ED50 [5] | ED50 [4, 7] | MePh antag. ED50 2 hr i.p. ([4]; mice, test substance i.p., 2 hr before methylphenidate 60 mg/kg s.c.)
OCCN1CCN([C@@H]2C[C@@H](c3ccc(F)cc3)c3ccc(F)cc32)CC1 (relative stereo) [Lu 13-117, 1-(2-hydroxyethyl)-4-(3-(4'-fluorophenyl)-6-fluoro-1-indanyl)piperazine] | 113 mg/kg | 0.63 | 13 | 79 mg/kg | 3 mg/kg | 6 mg/kg |  | 
CN1CCN([C@@H]2C[C@@H](c3ccccc3)c3ccc(Cl)cc32)CC1 (relative stereo) [Lu 14-063] | 80 mg/kg | 5 |  | > 40 mg/kg | 29 mg/kg | > 40 mg/kg |  | 
CN1CCN([C@@H]2C[C@H](c3ccc(F)cc3)c3ccc(Cl)cc32)CC1 (relative stereo) [Lu 14-069] | 65 mg/kg | 5 |  | > 40 mg/kg | 5.7 mg/kg | > 20 mg/kg |  | 
Cc1ccc2c(c1)[C@H](N1CCN(C)CC1)C[C@H]2c1ccc(F)cc1 (relative stereo) [Lu 17-048] | 80 mg/kg | 0.16 | 0.7 | 4.8 mg/kg | 0.6 mg/kg | 6.7 mg/kg |  | 
Cc1ccc2c(c1)[C@H](N1CCN(CCO)CC1)C[C@H]2c1ccc(F)cc1 (relative stereo) [Lu 17-050] | 80 mg/kg | 0.63 | 0.8 | 7.7 mg/kg | 3.4 mg/kg | 9.4 mg/kg |  | 
CSc1ccc2c(c1)[C@H](N1CCN(CCO)CC1)C[C@H]2c1ccc(F)cc1 (relative stereo) [Lu 17-053] | 68 mg/kg | 2.5 |  | 6.2 mg/kg | 1.3 mg/kg | 9.1 mg/kg |  | 
CSc1ccc2c(c1)[C@H](N1CCN(C)CC1)C[C@@H]2c1ccc(F)cc1 (relative stereo) [Lu 17-056] |  | 5 |  |  | 20 mg/kg |  |  | 
OCCN1CCN([C@@H]2C[C@@H](c3ccccc3)c3ccccc32)CC1 (relative stereo) [Lu 17-061] |  | 10 |  |  | > 40 mg/kg |  |  | 
CN1CCN([C@@H]2C[C@@H](c3ccccc3)c3ccccc32)CC1 (relative stereo) [Lu 17-091] |  | 10 |  |  | > 40 mg/kg |  |  | 
OCCN1CCN([C@@H]2C[C@@H](c3ccc(F)cc3)c3cc(Cl)ccc32)CC1 (relative stereo) [Lu 17-116] |  | 10 |  |  | > 40 mg/kg |  |  | 
OCCN1CCN([C@@H]2C[C@H](c3ccc(F)cc3)c3ccc(Cl)cc32)CC1 (relative stereo) [Lu 17-120] |  | 2.5 |  | > 20 mg/kg | 3.2 mg/kg |  |  | 
OCCN1CCN([C@@H]2C[C@H](c3ccc(F)cc3)c3ccccc32)CC1 (relative stereo) [Lu 17-124] |  | 5 |  |  | > 40 mg/kg |  |  | 
O=C1OCCN1CCN1CCN(C2CC(c3ccc(F)cc3)c3ccc(F)cc32)CC1 (stereo not shown) [Lu 17-039] | 113 mg/kg |  |  | > 80 mg/kg | 9.1 mg/kg | 51 mg/kg |  | 
O=C1NCCN1CCN1CCN(C2CC(c3ccc(F)cc3)c3ccc(F)cc32)CC1 (stereo not shown) [Lu 17-045] |  | 2.5 |  | > 80 mg/kg | > 40 mg/kg | > 80 mg/kg |  | 
CN1CCN(C2CC(c3ccc(F)cc3)c3cc(F)ccc32)CC1 (stereo not shown) [Lu 17-071] |  | 10 |  | 31 mg/kg | > 40 mg/kg |  |  | 
Cc1ccc2c(c1)C(N1CCN(CC3CC3)CC1)CC2c1ccc(F)cc1 (stereo not shown) [Lu 17-130] |  | 5 |  | > 40 mg/kg | 5 mg/kg | > 40 mg/kg |  | 
O=C(CCCN1CCN(C2CC(c3ccc(F)cc3)c3ccc(F)cc32)CC1)c1ccc(F)cc1 (stereo not shown) [Lu 17-145] |  | 5 |  |  | > 40 mg/kg |  |  | 
CS(=O)(=O)c1ccc2c(c1)C(N1CCN(CCO)CC1)CC2c1ccc(F)cc1 (stereo not shown) [Lu 18-041] | > 160 mg/kg | 5 |  |  | 10 mg/kg |  |  | 
OCC(CO)N1CCN(C2CC(c3ccc(F)cc3)c3ccc(F)cc32)CC1 (stereo not shown) [Lu 18-134, 1-(1,3-dihydroxy-2-propy)-4-(3-(4'-fluorophenyl)-6-fluoro-1-indanyl)piperazine] |  | < 5 | 4.9 | 57 mg/kg | 1.9 mg/kg | 11.7 mg/kg |  | 
Fc1ccc(C2CC(N3CCN(CC4CC4)CC3)c3cc(F)ccc32)cc1 (stereo not shown) [Lu 18-157, 1-cyclopropylmethyl-4-(3-(4'-fluorophenyl)-6-fluoro-1-indanyl)piperazine] | 68 mg/kg |  |  |  | 5 mg/kg |  |  | 
Fc1ccc(C2CC(N3CCN(CCc4ccccc4)CC3)c3cc(F)ccc32)cc1 (stereo not shown) [Lu 18-159] | 40 mg/kg |  |  |  | 15 mg/kg |  |  | 
Fc1ccc(C2CC(N3CCN(CC=Cc4ccccc4)CC3)c3cc(F)ccc32)cc1 (stereo not shown) [Lu 18-162, 1-(3-phenyl-2-propenyl)-4-(3-(4'-fluorophenyl)-6-fluoro-1-indanyl)piperazine] |  |  |  |  | 29 mg/kg |  |  | 
OCCCCN1CCN(C2CC(c3ccc(F)cc3)c3ccc(C(F)(F)F)cc32)CC1 (stereo not shown) [Lu 18-182] | 56 mg/kg |  |  | 0.2 mg/kg | 0.2 mg/kg | 0.2 mg/kg |  | 
OCC(CO)N1CCN(C2CC(c3ccc(F)cc3)c3ccc(C(F)(F)F)cc32)CC1 (stereo not shown) [Lu 18-185] |  |  |  | 0.3 mg/kg | 0.2 mg/kg | 0.3 mg/kg |  | 
COc1ccc2c3c1O[C@H]1[C@@H](O)C=C[C@H]4[C@@H](C2)N(C)CC[C@@]341 [codeine, reference compound] | 110 mg/kg | 20 |  |  |  |  | > 20 mg/kg | 
CCC(=O)O[C@](Cc1ccccc1)(c1ccccc1)[C@H](C)CN(C)C [dextropropoxyphene, reference compound] | 34 mg/kg | 20 |  |  |  |  | > 20 mg/kg | 
CN1CC[C@]23c4c5ccc(O)c4O[C@H]2[C@@H](O)C=C[C@H]3[C@H]1C5 [morfine, reference compound] |  | 2.5 |  |  |  |  |  | > 40 mg/kg
